Experiments:
Plasmodium falciparum = assay: Antimalarial activity against chloroquine-resistant Plasmodium falciparum FCK by [3H]hypoxanthine uptake; assay type: functional, organism-based
[1] = Binding affinity to Plasmodium falciparum ATPase6
[2] = Inhibition of Plasmodium falciparum ATPase6 expressed in Xenopus oocytes; assay type: cell-based; conditions: oocyte

COc1cc(/C=C/C(=O)CC(=O)/C=C/c2ccc(O)c(OC)c2)ccc1O [CURCUMIN]
IC50 (Plasmodium falciparum): 15000 nM

COc1cc(/C=C/C(=O)CC(=O)/C=C/c2ccc(O)c(OC)c2)ccc1O (stereo in doubt; form 1) [CURCUMIN]
Kd [1]: 1150 nM

C[C@@H]1CC[C@H]2[C@@H](C)C(=O)O[C@@H]3O[C@@]4(C)CC[C@@H]1[C@]32OO4 [ARTEMISININ]
Kd [2]: 150 nM | IC50 (Plasmodium falciparum): 45 nM

COc1cc(/C=C/C(=O)CC(=O)/C=C/c2ccc(O)c(OC)c2)ccc1O (stereo in doubt; form 2) [CURCUMIN]
Kd [1]: 2450 nM
